Experimental data as given in US12233161B1, “Lipids and lipid nanoparticle formulations” (LONGUIDE BIOPHARMA CORPORATION, priority 2024, dated 2025).

How the values were obtained:
mice = test: In vivo delivery of FLuc-mRNA lipid nanoparticles in mice, in vivo imaging (IVIS); details: DMG-PEG2000:DSPC:Chol:compound 1.40:11.15:38.95:48.50, N/P 30; for IVIS: Fluc-mRNA
How it was run: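 Mice (n=3) received about 75 μL FLuc-mRNA LNP per mouse intramuscularly (rectus femoris), intravenously (tail vein), intraperitoneally or subcutaneously (back). After injection, D-luciferin (200 μL, 15 mg/mL) was given i.p. 10-15 min before IVIS imaging.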

[1] = Particle size and PDI of nucleic acid lipid nanoparticle preparations by dynamic light scattering; assay type: physicochemical; details: DMG-PEG2000:DSPC:Chol:compound 1.40:11.15:38.95:48.50, N/P 30
How it was run: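 LNP solution (about 0.04 mg/mL mRNA before dilution) was diluted in ultrapure water and mixed by gentle pipetting. Particle size and PDI were then measured by dynamic light scattering.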

[2] = Potential characterization of nucleic acid lipid nanoparticle preparations; assay type: physicochemical; details: DMG-PEG2000:DSPC:Chol:compound 1.40:11.15:38.95:48.50, N/P 30
Experimental: 20 μL of the nucleic acid lipid nanoparticle solution (containing about 0.04 mg/mL mRNA) was taken and added with 780 μL of ultrapure water, used a pipette tip to gently blow and mix, and the potential of the nanopreparation was detected by Malvern particle sizer (model ZEN3700).
27.5 μL nucleic acid lipid nanoparticle solution (containing about 0.04 mg/mL mRNA) was taken and added with 200 μL ultrapure water. A pipette tip was used to gently blow the sample and mix well. The particle size of the nanopreparation was detected by Malvern Dynamic Light Scattering Instrument (Malvern Instruments Ltd., ZEN3700, UK). After the detection, the sample was recovered to an EP tube, and 600 μL of ultrapure water was added, gently blown with a pipette tip, and the potential of the nanopreparation was measured by a Malvern particle size meter.

PDI [1] | Particle size (nm) [1] | Zeta potential (mV) [2] | SMILES | IVIS (mice; IM) | IVIS (mice; IV, body) | % of organ targeting (mice; IV, liver) | IVIS (mice; IV, liver) | % of organ targeting (mice; IV, lung) | IVIS (mice; IV, lung) | % of organ targeting (mice; IV, spleen) | IVIS (mice; IV, spleen) | IVIS (mice; IV, organ not given)
0.18 | 137.37 nm | 14.13 mV | CCCCCCCCCCNC(=O)C(O)CN(CCCN(CCCN(CC(O)C(=O)NCCCCCCCCCC)CC(O)C(=O)NCCCCCCCCCC)C(CO)CO)CC(O)C(=O)NCCCCCCCCCC (stereo not drawn) [Compound L0287] | 1.81E+06 | 1.89E+07 | 34.55% | 3.26E+06 | 25.98% | 2.45E+06 | 39.46% | 3.72E+06 | –
0.12 | 108.77 nm | 12.50 mV | CCCCCCCCCCCCNC(=O)C(O)CNCCCN(C)CCCN(CC(O)C(=O)NCCCCCCCCCCCC)CC(O)C(=O)NCCCCCCCCCCCC (stereo not drawn) [Compound L0288] | 1.45E+05 | 6.03E+06 | 5.74% | 5.25E+05 | 78.38% | 7.18E+06 | 15.88% | 1.45E+06 | –
0.09 | 132.40 nm | 11.00 mV | CCCCCCCCCCCCNC(=O)C(O)CNCCCN(C)CCCNCC(O)C(=O)NCCCCCCCCCCCC (stereo not drawn) [Compound L0289] | 1.24E+05 | – | – | – | – | – | – | – | 1.63E+05
